Measured values from patent US20180064679A1, “METHOD FOR TREATING CANCER BASED ON LEVEL OF GLUCOCORTICOID RECEPTOR” (Abraxis BioScience, LLC, priority 2015, published 2018).

Key:
MDA-MB-231 cells = assay: caspase-3/7 activation (apoptosis) assay in MDA-MB-231 cells; assay type: cell-based; details: PTX 0-3000 nM alone, roughly 34.5 hours
Method: MDA-MB-231 cells were cultured using Eagle's minimum essential medium (EMEM) with 10% fetal bovine serum (FBS). FBS was charcoal-filtered to remove endogenous steroids. Cells were plated at 5000 cell per well and treated 24 hours after plating. PTX doses of 3000, 1000, 333.3, 111.1, 37.0, 12.3, 4.1, 1.4, 0.5, and 0 nM were evaluated. MDA-MB-231 cell samples treated with DEX received 100 nM DEX 30 minutes prior to administration of PTX or a vehicle control. The vehicle control for DEX was 0.1% ethanol, final concentration after addition. The vehicle control for PTX was 0.1% DMSO, final concentration after addition. Additionally, during PTX and/or DEX drug dosing, a caspase-3/7 activation reagent was added to the cell samples, for example, Caspase-3/7 reagent (Essen BioScience, Ann Arbor, Mich.; Catalog No. 4440). Specifically, the CELLPLAYER™ Kinetic Caspase-3/7 activation assay reagents (Essen BioScience, Ann Arbor, Mich.) were used to detect caspase-3/7 activation.
At time points following PTX administration (e.g., roughly every 3 hours) the activation of the caspase-3/7 reagent was measured with, for example, an INCUCYTE™ FLR (Essen BioScience, Ann Arbor, Mich.). Activation of caspase-3/7 is indicative of an apoptotic and/or an apoptosing cell. All concentrations of PTX, both with and without DEX, were evaluated in triplicate.

H1755 cells = assay: caspase-3/7 activation (apoptosis) assay in H1755 cells; assay type: cell-based, human
Method: H1755 cells were cultured using EMEM with 10% FBS. FBS was charcoal-filtered to remove endogenous steroids. Cells were plated at 5000 cell per well and treated 24 hours after plating. H1755 cell samples treated with DEX received DEX 30 minutes prior to administration of PTX or a vehicle control. Vehicle controls are the same as those discussed in Example 1. Additionally, during PTX and/or DEX drug dosing, a caspase-3/7 activation reagent was added to the cell samples, for example, Caspase-3/7 reagent (Essen BioScience, Ann Arbor, Mich; Catalog No. 4440). Specifically, the CELLPLAYER™ Kinetic Caspase-3/7 activation assay reagents (Essen BioScience, Ann Arbor, Mich.) were used to detect caspase-3/7 activation.
At time points following PTX administration the activation of the caspase-3/7 reagent was measured with, for example, an INCUCYTE™ FLR (Essen BioScience, Ann Arbor, Mich.). […] Apoptotic or apoptosing H1755 cells (caspase-3/7 positive cells) are indicated in white, as measured by caspase-3/7 activation (FIGS. 3A-3D).
To determine the EC50 of DEX in H1755 cells, a series of PTX concentrations were evaluated for caspase-3/7 activation across a series of DEX concentrations. […]
H1755 cell samples were treated with 0, 0.43, 1.3, 4.12, 12.3, 37, 111, 333, 1000, or 3000 nM PTX. […] At time points following drug administration, caspase-3/7 activation was measured as discussed in Example 1.

[1] = test system: phosphorylated c-Jun (Ser 73); assay: Western blot of phosphorylated c-Jun (Ser 73) in H1755 cells; assay type: cell-based, human; details: 100 nM PTX, 4 hours
Method: (§1) H1755 and H522 cells were cultured using RPMI media that was charcoal-filtered media to remove steroids. Cell samples received one of the following treatments: vehicle control (0.1% EtOH for DEX vehicle control or 0.1% DMSO for PTX vehicle control), 100 nM DEX, 100 nM PTX, or 100 nM DEX and 100 nM PTX. At 1 hour, 4 hours, or 24 hours after drug administration, cell samples were harvested and mRNA levels of MKP-1 and SGK1 were measured via quantitative real-time polymerase chain reaction (qRT-PGR). […]
(§2) In addition to measuring MKP-1 and SGK1 mRNA expression, a series of proteins (and their phosphorylation status) involved in stress pathway signaling were evaluated via Western blot to measure changes following treatment with DEX, PTX, or DEX and PTX. JNK1 was measured after 2 hours of treatment, P c-Jun, c-Jun, pMPK1, and SGK1 were measured after 4 hours of treatment, and other measurements were after 24 hours of treatment. […]

[2] = test system: phosphorylated c-Jun (Ser 73); assay: Western blot of phosphorylated c-Jun (Ser 73) in H522 cells; assay type: cell-based; details: 100 nM PTX, 4 hours
Method: as §1, §2

MCL1 = assay: Western blot of MCL1 and phosphorylated MCL1; assay type: cell-based; details: 100 nM PTX, 24 hours, H1755 and H522 cells
Method: (§3) H1755 and H522 cells were cultured using RPMI media that was charcoal-filtered media to remove steroids. Cell samples received one of the following treatments: vehicle control (0.1% EtOH for DEX vehicle control or 0.1% DMSO for PTX vehicle control), 100 nM DEX, 100 nM PTX, or 100 nM DEX and 100 nM PTX. At 1 hour, 4 hours, or 24 hours after drug administration, cell samples were harvested and mRNA levels of MKP-1 and SGK1 were measured via quantitative real-time polymerase chain reaction (qRT-PGR). Western blot analysis of GR, phosphorylated JNK1 (P-JNK1; phosphorylation at Thr 183 and Tyr 185), JNK1, phosphorylated c-Jun (P c-Jun; phosphorylation at Ser 73 or Ser 63), c-Jun, phosphorylated MKP1 (pMKP1; phosphorylated at Ser 359), SG1, phosphorylated MCL-1 (pMCL-1; phosphorylated at Ser 64), MCL-1, phosphorylated BCL2 (pBC1,2; phosphorylated at Ser 70), BCL2, BCLXL, cleaved caspase-3, and GAPDH (for purposes of normalization) was performed following treatment with either a vehicle control (0.1% EtOH for DEX vehicle control or 0.1% DMSO for PTX vehicle control), 100 nM DEX, 100 nM PTX, or 100 nM DEX and 100 nM PTX.
(§4) Furthermore, pro-survival markers, MCL1, BCL2, and BCLXL, were measured by Western blot to evaluate changes following treatment with DEX, PTX, or DEX and PTX. MCL1, BCL2, and BCLXL inhibit apoptosis by blocking activation of caspases, such as, caspase-3. […]

phosphorylated BCL2 = assay: Western blot of phosphorylated BCL2 in H1755 cells; assay type: cell-based, human; details: 100 nM PTX, 24 hours
Method: as §3, §4

BCLXL [3] = assay: Western blot of BCLXL in H1755 cells; assay type: cell-based, human; details: 100 nM PTX, 24 hours
Method: as §3, §4

BCLXL [4] = assay: Western blot of BCLXL in H522 cells; assay type: cell-based; details: 100 nM PTX, 24 hours
Method: as §3, §4

cleaved caspase-3 [5] = assay: Western blot of cleaved caspase-3 in H1755 cells; assay type: cell-based, human; details: 100 nM PTX, 24 hours
Method: as §3, §4

cleaved caspase-3 [6] = assay: Western blot of cleaved caspase-3 in H522 cells; assay type: cell-based; details: 100 nM PTX, 24 hours
Method: as §3, §4

[7] = test system: ERK, phosphorylated ERK, p38, and phosphorylated p38; assay: Western blot of MAPK pathway proteins in H1755 and H522 cells; assay type: cell-based; details: 100 nM DEX and/or 100 nM PTX, 4 hours
Method: H1755 and H522 cells were analyzed by Western blot at 4 hours following administration of a vehicle control (0.1% EtOH for DEX vehicle control or 0.1% DMSO for PTX vehicle control), 100 nM DEX, 100 nM PTX, or 100 nM DEX and 100 nM PTX.

H522 cell line = assay: caspase-3/7 activation assay in H522 cell line; assay type: cell-based; details: 100 nM DEX, 100 nM PTX, H522 (minimal level of GR)
H23 cells = assay: caspase-3/7 activation assay in H23 cells; assay type: cell-based; details: H23 cells (low level of GR expression), data not shown
MKP-1 = assay: qRT-PCR of MKP-1 mRNA in H1755 cells; assay type: cell-based, human; details: 100 nM DEX, H1755 cells, 1, 4 or 24 hours
Method: as §3

SGK1 = assay: qRT-PCR of SGK1 mRNA in H1755 cells; assay type: cell-based, human; details: 100 nM DEX, H1755 cells, 1, 4 or 24 hours
Method: as §3

MAP TAU = assay: Western blot of MAP TAU in H1755 cells; assay type: cell-based, human
Method: H1755 and H522 cells were analyzed by Western blot at 4 and 24 hours following administration of a vehicle control (0.1% EtOH for DEX vehicle control or 0.1% DMSO for PTX vehicle control), 100 nM DEX, 100 nM PTX, or 100 nM DEX and 100 nM PTX.

| Compound | level of apoptosis (as measured by level of caspase-3/7 activation) (MDA-MB-231 cells) | level of apoptosis (caspase-3/7 activation), PTX alone (H1755 cells; 111 nM PTX) | phosphorylation of c-Jun on Ser 73 following PTX treatment [1] | phosphorylation of c-Jun on Ser 73 following PTX treatment [2] | phosphorylation of MCL1 (MCL1) | total expression of MCL1 (MCL1) | phosphorylation of BCL2 (phosphorylated BCL2) | BCLXL expression (BCLXL [3]) | BCLXL expression (BCLXL [4]) | expression of cleaved caspase-3 (cleaved caspase-3 [5]) | expression of cleaved caspase-3 (cleaved caspase-3 [6]) | change of MAPK pathway proteins and MAPK signaling mechanisms [7] | EC50 (H1755 cells; Homo sapiens, NCI-H1755, caspase-3/7 activation, series of PTX and DEX concentrations) [nM] | DEX antagonism of PTX-induced apoptosis (H522 cell line) | DEX effect on PTX-induced apoptosis (H23 cells) | up-regulation of MKP-1 mRNA by DEX, maximum (MKP-1) [fold] | up-regulation of SGK1 mRNA by DEX, maximum (SGK1) [fold] | increase of MAP TAU in cells treated with DEX and PTX (MAP TAU; 100 nM DEX and 100 nM PTX, 24 hours) [fold] | DEX-induced upregulation of MAP TAU (MAP TAU; 100 nM DEX, 24 hours after drug administration) [fold] |
| --- | --- | --- | --- | --- | --- | --- | --- | --- | --- | --- | --- | --- | --- | --- | --- | --- | --- | --- | --- |
| CC(=O)O[C@H]1C(=O)[C@@]2(C)[C@H]([C@H](OC(=O)c3ccccc3)[C@]3(O)C[C@H](OC(=O)[C@H](O)[C@@H](NC(=O)c4ccccc4)c4ccccc4)C(C)=C1C3(C)C)[C@]1(OC(C)=O)CO[C@@H]1C[C@@H]2O [PTX, paclitaxel] | higher concentrations of PTX induced increased levels of apoptosis | marked increase in apoptosis | increased | increased | up-regulated | decreasing | up-regulated | down-regulated | not H522 cells | increases | increases | minimally changed |  |  |  |  |  |  |  |
| C[C@@H]1C[C@H]2[C@@H]3CCC4=CC(=O)C=C[C@]4(C)[C@@]3(F)[C@@H](O)C[C@]2(C)[C@@]1(O)C(=O)CO [DEX, dexamethasone] |  |  |  |  |  |  |  |  |  |  |  |  | 4 | no effect | no effect | 8 | 2.5 | 2 | 5 |
